Reference: US8114589B2, “Self-addressable self-assembling microelectronic integrated systems, component devices, mechanisms, methods, and procedures for molecular biological analysis and diagnostics” (Gamida For Life B.V., priority 1996, dated 2012)
Each block holds one compound with its values, some of them ahead of it.

Assay: Conductivity measurements of transport buffers
Format: physicochemical
Conditions: for Average/Std. Deviation / Measurement 1 / Measurement 2 / Measurement 3: conductivity

Compound: [Cl-].[Na+] [10 mM NaCl, NaCl]
Average/Std. Deviation: 1.12 +/− 0.057 mS/cm
Measurement 1: 1.07 mS/cm
Measurement 2: 1.10 mS/cm
Measurement 3: 1.18 mS/cm
Average/Std. Deviation (listed as 0.1 mM NaCl): 9.43 +/− 0.93 μS/cm
Measurement 1 (listed as 0.1 mM NaCl): 8.80 μS/cm
Measurement 2 (listed as 0.1 mM NaCl): 8.98 μS/cm
Measurement 3 (listed as 0.1 mM NaCl): 10.5 μS/cm
Average/Std. Deviation (listed as 1 mM NaCl): 112.7 +/− 2.08 μS/cm
Measurement 1 (listed as 1 mM NaCl): 112 μS/cm
Measurement 2 (listed as 1 mM NaCl): 115 μS/cm
Measurement 3 (listed as 1 mM NaCl): 111 μS/cm

Compound: Tris-Borate [100 mM Tris-Borate]
conductivity: 694 μS/cm

Compound: O=C([O-])C(=O)[O-].[Na+].[Na+] [5 mM NaOxalate]
Average/Std. Deviation: 1.06 +/− 0.055 mS/cm
Measurement 1: 1.02 mS/cm
Measurement 2: 1.03 mS/cm
Measurement 3: 1.12 mS/cm

Compound: [Cl-].[Cl-].[Mg+2] [10 mM MgCl2, MgCl2]
Average/Std. Deviation: 2.03 +/− 0.09 mS/cm
Measurement 1: 1.95 mS/cm
Measurement 2: 2.02 mS/cm
Measurement 3: 2.13 mS/cm
Average/Std. Deviation (listed as 0.1 mM MgCl2): 17.3 +/− 0.87 μS/cm
Measurement 1 (listed as 0.1 mM MgCl2): 16.9 μS/cm
Measurement 2 (listed as 0.1 mM MgCl2): 16.7 μS/cm
Measurement 3 (listed as 0.1 mM MgCl2): 18.3 μS/cm
Average/Std. Deviation (listed as 1 mM MgCl2): 186 +/− 18.8 μS/cm
Measurement 1 (listed as 1 mM MgCl2): 174 μS/cm
Measurement 2 (listed as 1 mM MgCl2): 208 μS/cm
Measurement 3 (listed as 1 mM MgCl2): 177 μS/cm

Other lines, results leading:

Average/Std. Deviation: 934 +/− 43.5 μS/cm
Measurement 1: 901 μS/cm
Measurement 2: 917 μS/cm
Measurement 3: 983 μS/cm
Compound: CC(=O)[O-].[Na+] [10 mM NaAcetate]

Average/Std. Deviation: 3.35 +/− 0.19 mS/cm
Measurement 1: 3.50 mS/cm
Measurement 2: 3.14 mS/cm
Measurement 3: 3.40 mS/cm
Average/Std. Deviation (listed as 10 mM TRIS): 572 +/− 10.5 μS/cm
Measurement 1 (listed as 10 mM TRIS): 572 μS/cm
Measurement 2 (listed as 10 mM TRIS): 562 μS/cm
Measurement 3 (listed as 10 mM TRIS): 583 μS/cm
Compound: NC(CO)(CO)CO [50 mM TRIS, TRIS]
